Results: patent US6861524B2, “Acyl and sulfonyl derivatives of 6,9-disubstituted 2-(trans-1,4-diaminocyclohexyl)-purines and their use as antiproliferative agents” (Aventis Pharmaceuticals Inc., priority 2000, dated 2005)
Marks after values point to notes of the source that are not given here. Each block holds one molecule with its values, some of them ahead of it.

Tests used:
[1] = Red blood cell binding (RBC to plasma ratio), mouse whole blood; type: in vitro ADME; settings: 30 minutes at 37° C., nominal 500 ng/ml, hematocrit 0.41
Protocol: (§1) Compounds, including one positive control, are assessed for red blood cell (RBC) uptake, using a modified procedure based on the protocol reported in Sun, J. X. S., et al. High-performance liquid chromatographic analysis, plasma protein binding and red blood cell partitioning of phenprobamate. Biopharmaceutics and Drug Disposition, 8 (1987) 341-351.
(§2) Briefly, RBC uptake is evaluated by comparison of the levels in spiked plasma (n=3) and plasma isolated from spiked whole blood (n=3). Compounds are incubated with human and mouse whole blood, respectively, for 30 minutes at 37° C. using a nominal concentration of 500 ng/ml. Following centrifugation, the plasma is removed and submitted for analysis. Each compound is also spiked into blank plasma at a nominal concentration of 500 ng/ml, and submitted for analysis. Levels in the two plasma samples (Cp′ and Cp in the equation below) and the blood hematocrit are used to determine the red blood cell to plasma ratio (Crbc/Cp). [formula] In equation 1, Cp′ is the level of drug in the spiked “blank” plasma, Cp is the level of drug in the plasma of spiked whole blood, and H is the hematocrit. The hematocrit values are determined as 0.4 for human whole blood and 0.41 for mouse whole blood. The samples are analyzed with ESI LC/MS, using positive ion detection with an internal standard.
(§3) The red blood cell to plasma ratio is determined for each compound using equation 1. Tables 6 and 7 summarize the respective mean Crbc/Cp values and standard deviations for mouse and human whole blood, respectively, in descending order based on the red blood cell to plasma ratio, where “*” denotes Positive Control, and “ND” denotes Not Determined. MDL 108552 is included as a positive control for red blood cell uptake.

[2] = Red blood cell binding (RBC to plasma ratio), human whole blood; type: in vitro ADME; settings: 30 minutes at 37° C., nominal 500 ng/ml
Protocol: as §1, §2, §3

[3] = Plasma pharmacokinetics in mice after single intravenous cassette doses; settings: for Mean concentration in plasma / Mean Conc. in plasma / concentration at 0.083 h / concentration at 0.25 h / concentration at 0.5 h / concentration at 1 h / concentration at 3 h / concentration at 6 h / concentration at 8 h: mice; for Mean concentration in plasma: single 18 mg/kg intravenous cassette dose (Cassette #1); for concentration at 0.083 h / concentration at 0.25 h / concentration at 0.5 h / concentration at 1 h / concentration at 3 h / concentration at 6 h / concentration at 8 h / AUC(0-inf) / Cmax / half-life: male, Hsd:ICR (CD-1), mouse, plasma, 3 mg/kg; for concentration at 0.083 h / concentration at 0.25 h / concentration at 0.5 h / concentration at 1 h / concentration at 3 h / concentration at 6 h / concentration at 8 h: intravenous, Mean Conc. in plasma; for AUC(0-inf) / Cmax / half-life: iv; for AUC(0-inf): AUC0-∞; for Cmax: Cmax (highest measured value); for half-life: t1/2, λz
[4] = 24 h, BLQ = below assay quantification limit (approx. 1 ng/ml)
[5] = Cassette #2, single 18 mg/kg iv cassette dose (3 mg/kg/compound), 8 h
[6] = Cassette #2, single 18 mg/kg iv cassette dose (3 mg/kg/compound), 24 h
[7] = mouse plasma, iv Cassette #2, 3 mg/kg/compound (18 mg/kg total dose)
[8] = mouse plasma, iv Cassette #3, 3 mg/kg/compound (15 mg/kg total dose)
[9] = mouse plasma, iv Cassette #4, 3 mg/kg/compound (15 mg/kg total dose)

SMILES: Cl.Cl.N[C@H]1CC[C@H](Nc2nc(NC3CCN(C(=O)Oc4ccccc4)CC3)c3ncn(C4CCCC4)c3n2)CC1 [Compound 85, trans-4-[2-(4-Amino-cyclohexylamino)-9-cyclopentyl-9H-purin-6-ylamino]-piperidine-1-carboxylic acid phenyl ester dihydrochloride]
Mean Red Blood Cell to Plasma Ratio [1]: 6.1
Mean Red Blood Cell to Plasma Ratio [2]: 7.1
Mean concentration in plasma ([3]; 0.083 h): 843.3 ± 124.5 ng/mL
Mean concentration in plasma ([3]; 0.25 h): 341.6 ± 45.1 ng/mL
Mean concentration in plasma ([3]; 0.5 h): 163.8 ± 15.7 ng/mL
Mean concentration in plasma ([3]; 1 h): 89.0 ± 21.5 ng/mL
Mean concentration in plasma ([3]; 3 h): 14.3 ± 7.1 ng/mL
Mean concentration in plasma ([3]; 6 h): 5.2 ± 1.9 ng/mL
Mean concentration in plasma ([3]; 8 h): 3.2 ng/mL
Mean concentration in plasma [3, 4]: BLQ

Mean Red Blood Cell to Plasma Ratio [2]: 4.1
Mean Conc. in plasma [3, 5]: BLQ^a
Mean Conc. in plasma [3, 6]: BLQ^a
SMILES: CCOC(=O)c1ccc(NC(=O)N2CCC(Nc3nc(N[C@H]4CC[C@H](N)CC4)nc4c3ncn4C3CCCC3)CC2)cc1.Cl.Cl [Compound 154, trans-4-[(1-{4-[2-(4-Amino-cyclohexylamino)-9-cyclopentyl-9H-purin-6-ylamino]-piperidine-1-yl}-methanoyl)-amino]-benzoic acid ethyl ester dihydrochloride]

Mean Red Blood Cell to Plasma Ratio [1]: 2.4
Mean Red Blood Cell to Plasma Ratio [2]: 5.0
Mean concentration in plasma [3, 4]: BLQ
SMILES: Cl.Cl.N#Cc1ccc(S(=O)(=O)N2CCC(Nc3nc(N[C@H]4CC[C@H](N)CC4)nc4c3ncn4C3CCCC3)CC2)cc1 [Compound 109, trans-N^2-(4-Amino-cyclohexyl)-9-cyclopentyl-N^6-[1-(4-cyano-benzenesulfonyl)-piperidin-4-yl]-9H-purine-2,6-diamine dihydrochloride]

concentration at 0.083 h ([3]; Cassette #2, single 18 mg/kg iv cassette dose (3 mg/kg/compound), 0.083 h): 472 ng/mL
concentration at 0.25 h ([3]; Cassette #2, single 18 mg/kg iv cassette dose (3 mg/kg/compound), 0.25 h): 317 ng/mL
concentration at 0.5 h ([3]; Cassette #2, single 18 mg/kg iv cassette dose (3 mg/kg/compound), 0.5 h): 266 ng/mL
concentration at 1 h ([3]; Cassette #2, single 18 mg/kg iv cassette dose (3 mg/kg/compound), 1 h): 133 ng/mL
concentration at 3 h ([3]; Cassette #2, single 18 mg/kg iv cassette dose (3 mg/kg/compound), 3 h): 16.1 ± 1.4 ng/mL
concentration at 6 h ([3]; Cassette #2, single 18 mg/kg iv cassette dose (3 mg/kg/compound), 6 h): 2.8 ± 0.4 ng/mL
concentration at 8 h [3, 5]: 1.6 ± 0.2 ng/mL
concentration at 0.083 h ([3]; Cassette #3, single 15 mg/kg iv cassette dose (3 mg/kg/compound), 0.083 h): 520 ± 69.3 ng/mL
concentration at 0.25 h ([3]; Cassette #3, single 15 mg/kg iv cassette dose (3 mg/kg/compound), 0.25 h): 324 ± 32.3 ng/mL
concentration at 0.5 h ([3]; Cassette #3, single 15 mg/kg iv cassette dose (3 mg/kg/compound), 0.5 h): 209 ± 24.1 ng/mL
concentration at 1 h ([3]; Cassette #3, single 15 mg/kg iv cassette dose (3 mg/kg/compound), 1 h): 108 ± 29.3 ng/mL
concentration at 3 h ([3]; Cassette #3, single 15 mg/kg iv cassette dose (3 mg/kg/compound), 3 h): 23.5 ± 6.4 ng/mL
concentration at 6 h ([3]; Cassette #3, single 15 mg/kg iv cassette dose (3 mg/kg/compound), 6 h): 5 ± 0.5 ng/mL
concentration at 8 h ([3]; Cassette #3, single 15 mg/kg iv cassette dose (3 mg/kg/compound), 8 h): 2.4 ± 1.7 ng/mL
concentration at 0.083 h ([3]; Cassette #4, single 15 mg/kg iv cassette dose (3 mg/kg/compound), 0.083 h): 567 ± 43.5 ng/mL
concentration at 0.25 h ([3]; Cassette #4, single 15 mg/kg iv cassette dose (3 mg/kg/compound), 0.25 h): 491 ± 32.3 ng/mL
concentration at 0.5 h ([3]; Cassette #4, single 15 mg/kg iv cassette dose (3 mg/kg/compound), 0.5 h): 325 ± 13.6 ng/mL
concentration at 1 h ([3]; Cassette #4, single 15 mg/kg iv cassette dose (3 mg/kg/compound), 1 h): 145 ± 9.5 ng/mL
concentration at 3 h ([3]; Cassette #4, single 15 mg/kg iv cassette dose (3 mg/kg/compound), 3 h): 35.3 ± 8.3 ng/mL
concentration at 6 h ([3]; Cassette #4, single 15 mg/kg iv cassette dose (3 mg/kg/compound), 6 h): 10.1 ± 3 ng/mL
concentration at 8 h ([3]; Cassette #4, single 15 mg/kg iv cassette dose (3 mg/kg/compound), 8 h): 3.7 ± 0.7 ng/mL
AUC(0-inf) [3, 7]: 467 ng·h/mL
AUC(0-inf) [3, 8]: 452 ng·h/mL
AUC(0-inf) [3, 9]: 627 ng·h/mL
Cmax [3, 7]: 472 ng/mL
Cmax [3, 8]: 520 ng/mL
Cmax [3, 9]: 567 ng/mL
half-life [3, 7]: 90 min
half-life [3, 8]: 90 min
half-life [3, 9]: 90 min
Mean Conc. in plasma [3, 6]: BLQ
Mean Conc. in plasma ([3]; Cassette #3, single 15 mg/kg iv cassette dose (3 mg/kg/compound), 24 h): BLQ
Mean Conc. in plasma ([3]; Cassette #4, single 15 mg/kg iv cassette dose (3 mg/kg/compound), 24 h): BLQ
Mean concentration in plasma [3, 4]: BLQ
AUC0-∞ ([3]; mouse plasma, iv Cassette #1, 3 mg/kg/compound (18 mg/kg total dose)): 532 ng·h/mL
SMILES: NC1CCC(Nc2nc(NCCCc3ccccc3)c3ncn(C4CCCC4)c3n2)CC1 (stereo not drawn) [MDL 107167, reference compound]

SMILES: COC(=O)c1ccc(OC(=O)N2CCC(Nc3nc(N[C@H]4CC[C@H](N)CC4)nc4c3ncn4C3CCCC3)CC2)cc1.Cl.Cl [Compound 83, trans-4-[2-(4-Amino-cyclohexylamino)-9-cyclopentyl-9H-purin-6-ylamino]-piperidine-1-carboxylic acid 4-methoxycarbonyl-phenyl ester dihydrochloride]
Mean Red Blood Cell to Plasma Ratio [2]: 4.1
Mean concentration in plasma ([3]; 0.083 h): 1515.7 ± 611.8 ng/mL
Mean concentration in plasma ([3]; 0.25 h): 217.9 ± 92.8 ng/mL
Mean concentration in plasma ([3]; 0.5 h): 61.3 ± 32.9 ng/mL
Mean concentration in plasma ([3]; 1 h): 14.1^a ng/ml
Mean concentration in plasma ([3]; 3 h): 4.1^a ng/ml
Mean concentration in plasma ([3]; 6 h): 1.6^a ng/ml
Mean concentration in plasma ([3]; 8 h): 6.3^a ng/ml
Mean concentration in plasma [3, 4]: BLQ
